Laboratory results reported in publication PMC13086964, “USP7 deubiquitinase stabilizes FAN1 to support DNA crosslink repair and suppress CAG repeat expansion” (Nature Communications, 2026).

Tests used:
Assay type in all cases: cell-based, human
[1] = tested on: HeLa parental and FAN1 KO cells; assay: apoptosis: PARP-1 and caspase-3 cleavage, HeLa; details: 48 h
Procedure: (§1) Fig. 4 USP7 facilitates FAN1 localization and function during ICL repair. A QIBC analysis of chromatin-bound GFP-FAN1 foci in U2OS^eGFP-FAN1 cells transfected with either non-targeting (Ctrl), USP7 or FANCD2 siRNA oligos. 24 h later, cells were either mock-treated (–) or treated (+) with MMC (150 ng/ml) for 24 h. Color-coded scatterplots (from grey to green) indicate the number of GFP-FAN1 foci per nucleus from one biological replicate. Mean (solid line) and standard deviation (SD) from the mean (dashed lines) are indicated. Representative images are shown (bottom). Scale bar: 10 μm. This experiment was repeated three times. B QIBC analysis of endogenous FANCD2 foci in U2OS^eGFP-FAN1 cells transfected with either non-targeting (Ctrl) or the indicated siRNA oligos. 24 h later, cells were either mock-treated (−) or treated (+) with MMC (150 ng/ml) for 24 h. Color-coded scatterplots (from grey to blue) indicate the number of FANCD2 foci per nucleus from one biological replicate. Mean (solid line) and standard deviation (SD) from the mean (dashed lines) are indicated. […] 24 h later, cells were either mock-treated (−) or treated (+) with MMC (1 μg/ml) for 48 h and whole-cell lysates were analysed by immunoblotting. […] Relative FAN1, cleaved PARP-1 or cleaved Caspase-3 protein levels were determined by quantification of the respective band intensity (normalized to GAPDH) with the ImageJ software. […]

RPE-1 p53 KO cells = assay: clonogenic survival assay, RPE-1 p53 KO; details: 24 h, n = 3
Procedure: as §1, with “h.” for “h. Color-coded scatterplots (from grey to blue) indicate the number of FANCD2 foci per nucleus from one biological replicate. Mean (solid line) and standard deviation (SD) from the mean (dashed lines) are indicated.”
HeLa and RPE-1 p53 KO cells were transfected with the indicated siRNA. […] For analysis, plates were scanned and analysed with the ImageJ Plugin ColonyArea using the parameter “intensity percent”.

USP7 foci in U2OS cells = assay: QIBC of endogenous USP7 foci; details: MMC 150 ng/ml, 24 h
Procedure: Automated multichannel wide-field microscopy for QIBC was performed using the Olympus ScanR System as described previously. Images of cell populations were acquired under non-saturating conditions with Olympus ScanR Image Acquisition software 3.2 and 3.3.0, typically 16 (4×4) images per coverslip, and identical settings were applied to all samples of the same experiment. Images were analysed with the inbuilt Olympus ScanR Image Analysis Software Version 3.2 and 3.3.0, a dynamic background correction was applied, and nuclei segmentation was performed using an integrated intensity-based object detection module based on the DAPI signal. All downstream analyses were focused on properly detected nuclei containing a 2C-4C DNA content as measured by total and mean DAPI intensities. Fluorescence intensities were quantified and are depicted as arbitrary units. Color-coded scatterplots of asynchronous cell populations were generated with Spotfire data visualization software (TIBCO Spotfire 10.10.1.7). Within one experiment, similar cell numbers were compared for the different conditions. For visualizing discrete data in scatterplots, mild jittering (random displacement of data points along discrete data axes) was applied to demerge overlapping data points. Representative scatterplots and quantifications of independent experiments, typically containing several thousand cells each, are shown. […]

Q: Which results are given for `CO[C@@]12[C@H](COC(N)=O)C3=C(C(=O)C(C)=C(N)C3=O)N1C[C@@H]1N[C@@H]12` [MMC, Mitomycin C]?
A: apoptosis (cleavage of PARP-1 and caspase-3) ([1]; HeLa FAN1 KO cells depleted of USP7, MMC 1 µg/ml): further amplified; apoptosis (cleavage of PARP-1 and caspase-3) ([1]; HeLa, USP7 depletion or FAN1 loss, MMC 1 µg/ml): increased apoptosis; MMC sensitivity, FAN1/USP7 co-depletion (RPE-1 p53 KO cells): did not enhance sensitivity beyond individual knock-down of FAN1; MMC sensitivity, FANCD2-depleted (RPE-1 p53 KO cells): strongest MMC sensitivity; USP7 nuclear foci (USP7 foci in U2OS cells): increased modestly in numbers
